For 21 compounds, IC50 results are on record in patent publication US10689343B2, “Inhibitors of tryptophan 2,3-dioxygenase” (NETHERLANDS TRANSLATIONAL RESEARCH CENTER B.V., priority 2016, dated 2020).

The target in one assay is T1, Recombinant TDO (Homo sapiens, UniProt P48775).
T1 construct: Recombinant TDO (Seegers, N., et al.) and all other assay components were diluted in TDO reaction buffer
The experiment in a line: Biochemical assay for TDO (NFK GreenScreen). The settings on record: 50 nM TDO, 200 μM L-tryptophan. In a few lines:
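Recombinant human TDO (50 nM) preincubated with compound 60 min at room temperature in 100 mM NaH2PO4 pH 7.0, 0.02% Tween-20, with ascorbic acid. Reaction then run 15 min with 200 μM L-tryptophan (final), 0.3% DMSO. NFK product detected by NFK Green fluorescence after 3 h at 37° C; IC50 derived.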

The target in assay [1] is T2, TDO in SW48 colorectal carcinoma cells (Homo sapiens, UniProt P48775).
T2 construct: Endogenous expression of TDO has been determined in a variety of cancer cell lines; host or cells: SW48 colorectal carcinoma cells
The experiment in a line: Cell-based assay for TDO in SW48 colorectal carcinoma cells (NFK GreenScreen). The settings on record: 18 hours with L-tryptophan, read-out: IC50 on TDO in cells.

The target in a further assay is CYP2D6 (Homo sapiens, UniProt P10635). The experiment in a line: P450-Glo CYP2D6 Luc-IP assay.
The target in another assay is CYP3A4 (Homo sapiens, UniProt P08684). Kind of assay: P450-Glo CYP3A4 luciferin isopropylacetal (Luc-IP) assay.

“And” between values parts separate entries of the source, which are not always exact repeats. Identical values can stand only once. A value given as a limit tells only on which side of the number the result lay.

Sequence of CYP3A4 (P08684 whole entry): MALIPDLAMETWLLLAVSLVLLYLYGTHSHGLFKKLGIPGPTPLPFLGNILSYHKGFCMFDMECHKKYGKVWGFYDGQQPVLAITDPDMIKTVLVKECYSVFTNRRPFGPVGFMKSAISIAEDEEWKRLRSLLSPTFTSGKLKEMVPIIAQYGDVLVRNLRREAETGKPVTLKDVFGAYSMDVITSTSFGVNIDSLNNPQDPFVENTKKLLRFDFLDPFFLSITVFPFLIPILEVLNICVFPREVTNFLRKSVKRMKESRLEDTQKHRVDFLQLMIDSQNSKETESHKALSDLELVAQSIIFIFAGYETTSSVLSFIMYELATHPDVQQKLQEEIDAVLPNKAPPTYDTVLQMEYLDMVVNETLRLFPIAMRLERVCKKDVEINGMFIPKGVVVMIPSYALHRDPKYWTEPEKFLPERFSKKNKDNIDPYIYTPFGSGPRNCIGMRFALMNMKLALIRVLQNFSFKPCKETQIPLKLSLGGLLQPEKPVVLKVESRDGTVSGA
Sequence of CYP2D6 (P10635 whole entry): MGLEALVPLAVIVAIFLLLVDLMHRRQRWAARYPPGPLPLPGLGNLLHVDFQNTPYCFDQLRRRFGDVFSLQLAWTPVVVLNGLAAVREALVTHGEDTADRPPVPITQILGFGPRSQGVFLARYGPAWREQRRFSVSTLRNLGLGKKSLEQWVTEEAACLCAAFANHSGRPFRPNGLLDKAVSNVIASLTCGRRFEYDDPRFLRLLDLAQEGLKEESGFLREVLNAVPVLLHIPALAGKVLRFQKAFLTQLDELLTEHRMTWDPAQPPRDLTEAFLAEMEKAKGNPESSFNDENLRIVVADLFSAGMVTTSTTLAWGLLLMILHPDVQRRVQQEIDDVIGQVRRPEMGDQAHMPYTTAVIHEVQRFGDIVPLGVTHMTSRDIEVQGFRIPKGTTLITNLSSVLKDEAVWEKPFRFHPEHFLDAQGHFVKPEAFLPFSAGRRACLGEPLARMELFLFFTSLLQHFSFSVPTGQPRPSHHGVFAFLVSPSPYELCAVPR
T2 sequence (P48775 whole entry): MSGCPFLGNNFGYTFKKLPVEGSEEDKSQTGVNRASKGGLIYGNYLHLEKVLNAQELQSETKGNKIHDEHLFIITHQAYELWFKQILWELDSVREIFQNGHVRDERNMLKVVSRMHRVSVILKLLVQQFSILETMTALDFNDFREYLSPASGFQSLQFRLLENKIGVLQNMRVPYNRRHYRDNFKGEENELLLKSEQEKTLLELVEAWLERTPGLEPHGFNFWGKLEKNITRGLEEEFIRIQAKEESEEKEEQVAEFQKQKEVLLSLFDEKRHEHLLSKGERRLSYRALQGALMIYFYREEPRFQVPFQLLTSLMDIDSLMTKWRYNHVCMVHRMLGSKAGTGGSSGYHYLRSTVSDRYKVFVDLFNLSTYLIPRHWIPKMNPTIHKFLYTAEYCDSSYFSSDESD
T1 sequence (P48775 whole entry): as above

`CC(=O)N1CCCC(NC(=O)c2ccc(-c3c[nH]c4cc(F)ccc34)cc2)C1` (stereo not drawn) [Example 119, N-(1-acetyl-3-piperidyl)-4-(6-fluoro-1H-indol-3-yl)benzamide]: the IC50 on Recombinant TDO is 1 to 5 µM; in assay [1], ≤ 0.5 µM and 0.2 to 0.5 µM; on CYP2D6 it was more than 10 µM; against CYP3A4 it was 5 to 10 µM.

Turning to `CC(C)(O)CNC(=O)c1ccc(-c2c[nH]c3cc(F)ccc23)cc1` [Example 13, 4-(6-Fluoro-1H-indol-3-yl)-N-(2-hydroxy-2-methyl-propyl)benzamide], the IC50 at Recombinant TDO is less than 1 µM; in assay [1] it was ≤ 0.5 µM and 0.2 to 0.5 µM; at CYP2D6, more than 10 µM; against CYP3A4, more than 10 µM.

With `O=C(NC1CCOCC1)c1ccc(-c2c[nH]c3cc(F)ccc23)cc1` [Example 44, 4-(6-Fluoro-1H-indol-3-yl)-N-tetrahydropyran-4-yl-benzamide], the IC50 at Recombinant TDO was less than 1 µM; in assay [1] it was ≤ 0.5 µM and 0.2 to 0.5 µM; on CYP2D6 it was more than 10 µM; at CYP3A4, more than 10 µM.

Turning to `O=C(N[C@@H]1CCNC[C@@H]1F)c1ccc(-c2c[nH]c3cc(F)ccc23)cc1` [Example 74, 4-(6-Fluoro-1H-indol-3-yl)-N-[(3S,4R)-3-fluoro-4-piperidyl]benzamide], the IC50 at Recombinant TDO is less than 1 µM; in assay [1], not above 0.2 µM; against CYP2D6, more than 10 µM; at CYP3A4 it was 5 to 10 µM.

With `O=C(N[C@@H](CO)c1ccccc1)c1ccc(-c2c[nH]c3cc(F)ccc23)cc1` [Example 16, 4-(6-fluoro-1H-indol-3-yl)-N-[(1R)-2-hydroxy-1-phenyl-ethyl]benzamide], the IC50 was 1 to 5 µM at Recombinant TDO; ≤ 0.5 µM and 0.2 to 0.5 µM in assay [1]; 5 to 10 µM at CYP2D6; 5 to 10 µM against CYP3A4.

As to `CO[C@H]1CNCC[C@H]1NC(=O)c1ccc(-c2c[nH]c3cc(F)ccc23)cc1` [Example 43, 4-(6-Fluoro-1H-indol-3-yl)-N-[(3S,4R)-3-methoxy-4-piperidyl]benzamide], the IC50 is less than 1 µM at Recombinant TDO; ≤ 0.5 µM and 0.2 to 0.5 µM in assay [1]; more than 10 µM against CYP2D6; 5 to 10 µM on CYP3A4.

Take `O=C(Nc1ccc(-c2c[nH]c3cc(F)ccc23)cc1)[C@@H]1CCCNC1` [Example 131, (3R)—N-[4-(6-fluoro-1H-indol-3-yl)phenyl]piperidine-3-carboxamide]: the IC50 is less than 1 µM at Recombinant TDO; ≤ 0.5 µM and 0.2 to 0.5 µM in assay [1]; more than 10 µM against CYP2D6; more than 10 µM against CYP3A4.

Take `CN1CCC(O)(CNC(=O)c2ccc(-c3c[nH]c4cc(F)ccc34)cc2)CC1` [Example 63, 4-(6-Fluoro-1H-indol-3-yl)-N-[(4-hydroxy-1-methyl-4-piperidyl)methyl]benzamide]: the IC50 at Recombinant TDO was less than 1 µM; in assay [1] it was ≤ 0.5 µM and 0.2 to 0.5 µM; against CYP2D6 it was more than 10 µM; at CYP3A4, more than 10 µM.

With `CN1CCCC(NC(=O)c2ccc(-c3c[nH]c4cc(F)ccc34)cc2Cl)C1` (stereo not drawn) [Example 68, 2-Chloro-4-(6-fluoro-1H-indol-3-yl)-N-(1-methyl-3-piperidyl)benzamide], the IC50 on Recombinant TDO is less than 1 µM; in assay [1] it was not above 0.2 µM; on CYP2D6, more than 10 µM; on CYP3A4, 5 to 10 µM.

With `N[C@H]1CC[C@@H](C(=O)Nc2ccc(-c3c[nH]c4cc(F)ccc34)cc2)C1` [Example 106, (1R,3S)-3-amino-N-[4-(6-fluoro-1H-indol-3-yl)phenyl]cyclopentanecarboxamide], the IC50 on Recombinant TDO was less than 1 µM; in assay [1] it was ≤ 0.5 µM and 0.2 to 0.5 µM; against CYP2D6, more than 10 µM; on CYP3A4, 5 to 10 µM.

On to `COC(=O)C(NC(=O)c1ccc(-c2c[nH]c3cc(F)ccc23)cc1)C1CCNCC1` (stereo not drawn) [Example 122, Methyl 2-[[4-(6-fluoro-1H-indol-3-yl)benzoyl]amino]-2-(4-piperidyl)acetate], for which the IC50 on Recombinant TDO was less than 1 µM; in assay [1], ≤ 0.5 µM and 0.2 to 0.5 µM; on CYP2D6, more than 10 µM; at CYP3A4, 5 to 10 µM.

Take `O=C(N[C@H]1CCCNC1)c1c(F)cc(-c2c[nH]c3cc(F)ccc23)cc1F` [Example 58, 2,6-Difluoro-4-(6-fluoro-1H-indol-3-yl)-N-[(3S)-3-piperidyl]benzamide]: the IC50 on Recombinant TDO was less than 1 µM; in assay [1] it was not above 0.2 µM; at CYP2D6 it was more than 10 µM; against CYP3A4, more than 10 µM.

On to `O=C(Nc1ccc(-c2c[nH]c3cc(F)ccc23)cc1)C1[C@H]2COC[C@@H]12` (stereo partly drawn) [Example 100, (1R,5S)—N-[4-(6-fluoro-1H-indol-3-yl)phenyl]-3-oxabicyclo[3.1.0]hexane-6-carboxamide], for which the IC50 at Recombinant TDO is 1 to 5 µM; in assay [1], ≤ 0.5 µM and 0.2 to 0.5 µM; on CYP2D6 it was more than 10 µM; against CYP3A4 it was more than 10 µM.

For `O=C(NC1CCCNCC1)c1ccc(-c2c[nH]c3cc(F)ccc23)cc1` (stereo not drawn) [Example 83, N-(azepan-4-yl)-4-(6-fluoro-1H-indol-3-yl)benzamide], the IC50 was less than 1 µM at Recombinant TDO, not above 0.2 µM in assay [1], more than 10 µM on CYP2D6 and more than 10 µM against CYP3A4.

As for `C[C@@H](CO)NC(=O)c1ccc(-c2c[nH]c3cc(F)ccc23)cc1Cl` [Example 54, 2-Chloro-4-(6-fluoro-1H-indol-3-yl)-N-[(1S)-2-hydroxy-1-methyl-ethyl]benzamide], the IC50 at Recombinant TDO was less than 1 µM; in assay [1] it was not above 0.2 µM; at CYP2D6 it was more than 10 µM; against CYP3A4, more than 10 µM.

Regarding `CC(N)CNC(=O)c1ccc(-c2c[nH]c3cc(F)ccc23)cc1Cl` (stereo not drawn) [Example 71, N-(2-aminopropyl)-2-chloro-4-(6-fluoro-1H-indol-3-yl)benzamide], the IC50 on Recombinant TDO is less than 1 µM; in assay [1], not above 0.2 µM; at CYP2D6, more than 10 µM; against CYP3A4 it was 5 to 10 µM.

Turning to `N[C@@H]1CCC[C@H](C(=O)Nc2ccc(-c3c[nH]c4cc(F)ccc34)cc2)C1` [Example 105, (1S,3R)-3-amino-N-[4-(6-fluoro-1H-indol-3-yl)phenyl]cyclohexanecarboxamide], the IC50 is less than 1 µM at Recombinant TDO; ≤ 0.5 µM and 0.2 to 0.5 µM in assay [1]; more than 10 µM on CYP2D6; more than 10 µM against CYP3A4.

Turning to `O=C(NC1CCCNC1)c1ccc(-c2c[nH]c3cc(F)ccc23)cc1` (stereo not drawn) [Example 118, 4-(6-Fluoro-1H-indol-3-yl)-N-(3-piperidyl)benzamide], the IC50 was less than 1 µM at Recombinant TDO, not above 0.2 µM in assay [1], more than 10 µM against CYP2D6 and more than 10 µM against CYP3A4.

With `O=C(NCC(F)(F)F)c1ccc(-c2c[nH]c3cc(F)ccc23)cc1Cl` [Example 53, 2-Chloro-4-(6-fluoro-1H-indol-3-yl)-N-(2,2,2-trifluoroethyl)benzamide], the IC50 was less than 1 µM on Recombinant TDO; ≤ 0.5 µM and 0.2 to 0.5 µM in assay [1]; more than 10 µM on CYP2D6; more than 10 µM at CYP3A4.

As to `O=C(NN1CCOCC1)c1ccc(-c2c[nH]c3cc(F)ccc23)cc1` [Example 93, 4-(6-Fluoro-1H-indol-3-yl)-N-morpholino-benzamide], the IC50 at Recombinant TDO is less than 1 µM; in assay [1], ≤ 0.5 µM and 0.2 to 0.5 µM; against CYP2D6, more than 10 µM; at CYP3A4 it was more than 10 µM.

Turning to `CC(C)[C@@H](CO)NC(=O)c1ccc(-c2c[nH]c3cc(F)ccc23)cc1` [Example 3, 4-(6-Fluoro-1H-indol-3-yl)-N-[(1S)-1-(hydroxymethyl)-2-methyl-propyl]benzamide], the IC50 on Recombinant TDO is less than 1 µM; in assay [1] it was ≤ 0.5 µM and 0.2 to 0.5 µM; against CYP2D6 it was more than 10 µM; on CYP3A4 it was more than 10 µM.

As a reminder, the IC50 is the concentration that gives 50% inhibition.
